The results in this text go back to ChEMBL document CHEMBL1201862, “PubChem BioAssay data set” (2004).

The source made the active and inactive calls. A value given as a limit tells only on which side of the number the result lay.

In assay [1] the target is T1, Sentrin-specific protease 7 (Homo sapiens, UniProt Q9BQF6).
T1 sequence (Q9BQF6 whole entry): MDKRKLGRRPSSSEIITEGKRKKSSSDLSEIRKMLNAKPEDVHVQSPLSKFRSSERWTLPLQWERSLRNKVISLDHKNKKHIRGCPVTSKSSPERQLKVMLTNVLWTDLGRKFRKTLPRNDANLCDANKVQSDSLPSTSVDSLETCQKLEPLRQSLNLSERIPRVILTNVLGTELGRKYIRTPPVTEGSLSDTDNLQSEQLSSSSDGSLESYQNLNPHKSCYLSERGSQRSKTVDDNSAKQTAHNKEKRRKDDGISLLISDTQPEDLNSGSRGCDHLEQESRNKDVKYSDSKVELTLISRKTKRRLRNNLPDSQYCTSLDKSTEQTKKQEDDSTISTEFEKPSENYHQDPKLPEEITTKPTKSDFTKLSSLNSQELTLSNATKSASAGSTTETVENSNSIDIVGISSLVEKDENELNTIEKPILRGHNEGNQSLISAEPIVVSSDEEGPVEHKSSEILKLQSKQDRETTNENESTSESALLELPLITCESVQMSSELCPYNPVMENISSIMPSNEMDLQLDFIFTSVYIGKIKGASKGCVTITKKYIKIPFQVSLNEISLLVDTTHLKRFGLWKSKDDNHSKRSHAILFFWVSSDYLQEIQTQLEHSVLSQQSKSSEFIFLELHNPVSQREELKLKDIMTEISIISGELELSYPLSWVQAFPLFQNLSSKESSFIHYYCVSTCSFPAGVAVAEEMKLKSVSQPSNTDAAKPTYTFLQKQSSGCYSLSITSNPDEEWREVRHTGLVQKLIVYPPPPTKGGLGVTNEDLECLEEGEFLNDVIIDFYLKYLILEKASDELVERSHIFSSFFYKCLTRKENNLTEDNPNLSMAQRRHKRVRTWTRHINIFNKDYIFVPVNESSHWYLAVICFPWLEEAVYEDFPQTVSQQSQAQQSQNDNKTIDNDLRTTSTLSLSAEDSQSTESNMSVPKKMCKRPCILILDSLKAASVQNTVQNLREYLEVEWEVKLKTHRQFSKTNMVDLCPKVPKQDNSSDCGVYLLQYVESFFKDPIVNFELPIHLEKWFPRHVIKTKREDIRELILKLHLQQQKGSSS
The experiment in a line: inhibition of human SENP7 cleavage activity – biochemical, luminescence, SAR follow-up (AID 504497). The class given is functional.

Assay [2] in a line: viability loss in HEK293 cells – cell-based, plate reader, cherry-picked samples, cytotoxicity control, dose response (AID 743446). The class given is functional.
The target of assay [3] is Delta-type opioid receptor (Homo sapiens, UniProt P41143). Kind of assay: HTS Image-Based Screen for Antagonists of the DOR Receptor. [Related pubchem assays (depositor defined):AID1777, AID1785, AID1786, AID2133]. The class given is functional.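 Also: U2OS cells expressing DOR stimulated with 100 nM SNC80 agonist.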
Sequence of Delta-type opioid receptor (P41143 whole entry): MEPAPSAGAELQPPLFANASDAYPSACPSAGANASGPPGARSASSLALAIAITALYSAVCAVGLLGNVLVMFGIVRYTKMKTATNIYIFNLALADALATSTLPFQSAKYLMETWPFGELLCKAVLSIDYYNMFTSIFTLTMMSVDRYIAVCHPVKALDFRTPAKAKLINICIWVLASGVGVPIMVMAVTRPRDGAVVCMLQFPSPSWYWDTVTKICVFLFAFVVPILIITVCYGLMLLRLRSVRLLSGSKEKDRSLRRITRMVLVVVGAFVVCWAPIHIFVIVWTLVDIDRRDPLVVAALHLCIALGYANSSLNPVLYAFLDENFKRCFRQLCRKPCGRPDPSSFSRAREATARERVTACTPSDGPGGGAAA
A short description of assay [4]: NIH3T3 cell viability loss – ATP luminescence, mouse fibroblasts, counter-screen, dose response (AID 2010).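 Also: cells exposed to compound for about 90 hours before reading.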 The format is functional, cell-based.
Assay [5] has as its target ATP-dependent molecular chaperone HSP82 (Candida albicans (strain WO-1) (Yeast), UniProt C4YTQ8). The experiment in a line: steroid-induced GRE reporter decrease in yeast – S. cerevisiae, luminescence, Hsp90 inhibitor project, dose response (AID 2400).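 Also: beta-galactosidase luminescence from glucocorticoid response element reporter as proxy for Hsp90 function; inhibitor potency where signal loss means Hsp90 inhibition.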 The class given is functional, cell-based.

Sequence of ATP-dependent molecular chaperone HSP82 (C4YTQ8 whole entry): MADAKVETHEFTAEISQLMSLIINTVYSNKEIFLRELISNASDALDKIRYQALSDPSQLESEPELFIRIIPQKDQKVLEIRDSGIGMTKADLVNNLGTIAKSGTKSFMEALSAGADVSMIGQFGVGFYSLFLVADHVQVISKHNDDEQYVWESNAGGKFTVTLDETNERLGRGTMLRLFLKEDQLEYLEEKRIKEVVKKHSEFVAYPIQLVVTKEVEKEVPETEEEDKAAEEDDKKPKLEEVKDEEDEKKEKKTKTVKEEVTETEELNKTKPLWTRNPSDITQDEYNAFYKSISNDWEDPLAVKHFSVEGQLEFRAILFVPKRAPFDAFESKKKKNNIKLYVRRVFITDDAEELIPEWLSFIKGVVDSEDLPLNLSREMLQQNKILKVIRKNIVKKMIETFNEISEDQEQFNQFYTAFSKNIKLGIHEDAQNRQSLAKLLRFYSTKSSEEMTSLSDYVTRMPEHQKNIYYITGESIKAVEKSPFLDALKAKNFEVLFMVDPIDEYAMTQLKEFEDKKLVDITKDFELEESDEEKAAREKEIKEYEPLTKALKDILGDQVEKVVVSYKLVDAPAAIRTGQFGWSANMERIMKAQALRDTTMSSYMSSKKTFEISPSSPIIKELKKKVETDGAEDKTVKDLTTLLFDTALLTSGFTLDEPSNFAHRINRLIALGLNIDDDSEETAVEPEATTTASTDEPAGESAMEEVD

Consider `Oc1ccc(/C=N\Nc2cc(N3CCOCC3)nc(N3CCOCC3)n2)c(O)c1`, for which the IC50 in assay [1] is 78 µM (active). With `COc1cc(NC(=O)Cn2ncc(Cl)c(Cl)c2=O)c(C)cc1[N+](=O)[O-]`, the AC50 in assay [2] was 6.28 µM (active). Further, the IC50 in assay [3] is > 32 µM (inactive). Also, in assay [4], the EC50 is 3.17 µM (active). `Cc1ccc(C)c(S(=O)(=O)N2CCN(Cc3ccc(O)c4ncccc34)CC2)c1`: in assay [5], the EC50 is > 160 µM (inactive).

A word on the IC50: it is the concentration needed to halve the response being measured. For orientation: AC50 means the midpoint of the concentration-response curve, whichever way the signal moves. For orientation: EC50 means the concentration at which the effect is half-maximal.
